Measurements as given in patent publication US10981896B2, “Indolinone derivatives as inhibitors of maternal embryonic leucine zipper kinase” (BOARD OF REGENTS, THE UNIVERSITY OF TEXAS SYSTEM, priority 2017, dated 2021).
Where two headings read alike, the source gives them in different places. One block for each compound: values may come before it.

Assays:
Assay type in all cases: biochemical
MELK = MELK (Homo sapiens (Human), UniProt Q14680); test: MELK p81-based kinase assay, dose-response (IC50/Ki); conditions: for IC50: 40 μM ATP
Chain of MELK (Q14680 1-340): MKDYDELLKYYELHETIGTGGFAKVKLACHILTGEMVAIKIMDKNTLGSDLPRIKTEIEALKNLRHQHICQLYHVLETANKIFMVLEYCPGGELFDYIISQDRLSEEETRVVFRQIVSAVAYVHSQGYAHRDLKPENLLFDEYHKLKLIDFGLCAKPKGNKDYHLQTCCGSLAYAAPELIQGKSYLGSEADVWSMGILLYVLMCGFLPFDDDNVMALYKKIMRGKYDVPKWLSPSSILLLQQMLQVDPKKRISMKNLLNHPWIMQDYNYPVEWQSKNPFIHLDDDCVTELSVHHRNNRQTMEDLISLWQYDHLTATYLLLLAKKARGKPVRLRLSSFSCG
Description: MELK and its substrate, Bcl-G were both recombinantly expressed and purified for use in screening assays (See Methods). […] 10 nM MELK 340 and 10 μM Bcl-GL in kinase assay buffer (50 mM HEPES pH 7.5, 100 mM KCl, 0.1 mM EDTA, 0.1 mM EGTA, 10 mM MgCl2, 10 μg/mL BSA) with 10 mM DTT were added to either 10 μM or 1 μM inhibitor aliquoted into 96 well plates (final 1% DMSO). The mixture was incubated at room temperature for 30 minutes prior to initiation of the assay with 40 μM γ-^32P-ATP (100-1000 CPM/pmol). 40 μL aliquots were spotted onto a p81 96 well filter plate (Unifilter, Whatman), quenched, and washed with 75 mM O-phosphoric acid 8 times, followed by a final wash with acetone for drying. Wells were then filled with scintillation fluid, sealed, and quantified using a MicroBeta TriLux liquid scintillation counter (PerkinElmer). Each inhibitor plate was assayed in duplicate, with at least 4 wells without MELK to establish background and at least 4 wells without inhibitor as a negative control. All readings were corrected for background signal based on the average counts from the wells without enzyme. Percent inhibition, defined as [100−(CPM+inhibitor/average CPM of positive controls)*100], was determined first at 10 μM inhibitor. The top 50 inhibitors were then re-screened in duplicate at 1 μM.
At set time points (0.25, 0.5, 1, 1.5, and 2 min for assays containing 10 nM MELK and 1, 2, 4, 6, and 10 min for assays containing 1 nM MELK), 30 μL aliquots were taken from each reaction and spotted onto 2×2 cm squares of p81 paper. Papers were washed 4 times in 75 mM O-phosphoric acid and once in acetone. Labeled protein was quantified by its associated CPM determined on a Packard 1500 scintillation counter at a sigma value of 2. CPM were translated into nmol ^32P incorporated using Equation 1.
Rates in the presence of each concentration of inhibitor were determined by plotting nmol ^32P incorporated vs. time. These rates were normalized to rates obtained without inhibitor, and data were plotted in terms of fractional activity. In most cases, data were fit to Equation 2. If the IC50 approached the amount of enzyme used in the assay, data were re-fit to the equation for tight-binding inhibitors (the Morrison equation, […]). […] Data were transformed as discussed and fit to Equation 3.
IC50 values were used to estimate each inhibitor's Ki using the Cheng-Prusoff relationship for competitive inhibitors (Equation 4).

CAMKK2 = CAMKK2 (Homo sapiens (Human), UniProt Q96RR4); test: Selectivity dose-response kinase assay, CAMKK2; conditions: for Ki: 100 μM ATP
Chain of CAMKK2 (Q96RR4 whole entry, species assumed): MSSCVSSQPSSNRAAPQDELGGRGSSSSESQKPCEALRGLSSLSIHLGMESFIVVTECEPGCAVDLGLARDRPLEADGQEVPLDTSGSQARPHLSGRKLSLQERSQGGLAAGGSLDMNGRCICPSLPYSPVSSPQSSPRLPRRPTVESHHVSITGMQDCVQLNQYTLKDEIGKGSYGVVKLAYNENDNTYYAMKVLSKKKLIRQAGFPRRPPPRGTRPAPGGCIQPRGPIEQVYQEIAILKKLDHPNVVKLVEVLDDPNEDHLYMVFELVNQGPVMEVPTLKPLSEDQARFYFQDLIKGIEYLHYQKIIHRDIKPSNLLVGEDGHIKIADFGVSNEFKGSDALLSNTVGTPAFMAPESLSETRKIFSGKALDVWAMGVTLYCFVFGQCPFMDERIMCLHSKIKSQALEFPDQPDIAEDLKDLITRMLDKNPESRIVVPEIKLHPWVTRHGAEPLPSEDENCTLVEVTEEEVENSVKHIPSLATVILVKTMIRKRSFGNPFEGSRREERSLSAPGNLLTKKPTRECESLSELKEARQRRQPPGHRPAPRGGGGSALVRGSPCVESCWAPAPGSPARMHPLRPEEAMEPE
Description: (§1) CHK1 and NUAK1 were purchased from SignalChem (Vancouver, BC). The NUAK2, CHK, and SAMS peptides were purchased from BioSyn (Lewisville, Tex.). The sequence of CHK and NUAK2 peptides are described elsewhere (Sanchez Y, et al. Science (New York, N.Y.). 1997; 277(5331):1497-1501; Scott J W, et al. Sci Rep. 2015; 5:14436). ERK2, AMPK, CAMKK2, and Ets1 were produced in house as previously described (Waas W F, Dalby K N. The Journal of biological chemistry. 2002; 277(15):12532-12540; Neumann D, et al. Protein Expr Purif. 2003; 30(2):230-237; Waas W F, Dalby K N. Protein Expr Purif. 2001; 23(1):191-197). Apparent KM values for ATP under specific assay conditions were determined using respective experimental conditions in Table 8 with varied ATP (0-1.28 mM). All selectivity dose-response assays were performed in kinase assay buffer (see Inhibitor Library Screen) with 2 mM DTT and 100 μM γ-^32P-ATP with additional conditions listed in Table 8. IC50 and KM^ATP values were subsequently used to calculate Ki (Equation 4). Relative selectivity was determined by comparing Ki^Enzyme/Ki^MELK (termed φ in Table 7). […] Standard error from linear regression data was propagated internally in Prism and taken into account in nonlinear regression to determine IC50 or Ki.

CHK1 = CHK1 (Homo sapiens (Human), UniProt O14757); test: Selectivity dose-response kinase assay, CHK1; conditions: for Ki: 100 μM ATP
Chain of CHK1 (O14757 whole entry): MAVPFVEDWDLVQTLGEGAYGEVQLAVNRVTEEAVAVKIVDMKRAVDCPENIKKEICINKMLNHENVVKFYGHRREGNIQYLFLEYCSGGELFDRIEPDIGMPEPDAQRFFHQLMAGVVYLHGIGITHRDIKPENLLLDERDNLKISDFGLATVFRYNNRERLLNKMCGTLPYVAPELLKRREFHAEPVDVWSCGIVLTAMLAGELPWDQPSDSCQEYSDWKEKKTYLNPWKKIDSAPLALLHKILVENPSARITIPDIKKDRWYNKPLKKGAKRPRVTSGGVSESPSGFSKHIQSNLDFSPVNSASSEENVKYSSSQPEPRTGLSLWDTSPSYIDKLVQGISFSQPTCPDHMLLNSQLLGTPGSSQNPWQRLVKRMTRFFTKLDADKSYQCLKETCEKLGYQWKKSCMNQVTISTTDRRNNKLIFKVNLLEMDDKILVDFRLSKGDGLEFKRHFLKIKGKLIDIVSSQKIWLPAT
Description: as §1

AMPK [1] = target: AMPK (Rattus norvegicus (Rat), UniProt P54645); test: Selectivity dose-response kinase assay, AMPK; conditions: 100 μM ATP
Chain of AMPK (Rattus norvegicus (Rat), UniProt P54645) (P54645 whole entry, looked up): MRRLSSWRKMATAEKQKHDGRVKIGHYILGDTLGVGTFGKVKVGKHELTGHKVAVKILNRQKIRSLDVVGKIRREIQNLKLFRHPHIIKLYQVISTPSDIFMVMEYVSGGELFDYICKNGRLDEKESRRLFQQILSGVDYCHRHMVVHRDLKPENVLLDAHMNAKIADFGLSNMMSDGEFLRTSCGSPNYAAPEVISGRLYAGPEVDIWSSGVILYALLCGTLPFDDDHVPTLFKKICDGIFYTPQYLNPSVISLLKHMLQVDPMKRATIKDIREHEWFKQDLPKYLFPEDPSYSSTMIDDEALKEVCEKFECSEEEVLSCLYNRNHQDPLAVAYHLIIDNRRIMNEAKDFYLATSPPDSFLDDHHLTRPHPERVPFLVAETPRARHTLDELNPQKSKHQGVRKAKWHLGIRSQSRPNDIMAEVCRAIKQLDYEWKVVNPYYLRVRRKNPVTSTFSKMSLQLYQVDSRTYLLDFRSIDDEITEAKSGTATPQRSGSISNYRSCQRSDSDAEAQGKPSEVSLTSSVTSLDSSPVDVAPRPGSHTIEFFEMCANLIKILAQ
Chain of AMPK (Rattus norvegicus (Rat), UniProt P54645) (P80386 whole entry partner, looked up): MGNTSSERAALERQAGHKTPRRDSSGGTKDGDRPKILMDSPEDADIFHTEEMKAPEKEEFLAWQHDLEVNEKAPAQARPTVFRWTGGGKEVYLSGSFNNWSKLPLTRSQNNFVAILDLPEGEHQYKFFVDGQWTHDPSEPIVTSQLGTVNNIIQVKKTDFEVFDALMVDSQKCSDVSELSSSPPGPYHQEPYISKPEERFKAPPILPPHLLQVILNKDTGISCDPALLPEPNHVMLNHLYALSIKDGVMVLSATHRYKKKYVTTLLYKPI
Chain of AMPK (Rattus norvegicus (Rat), UniProt P54645) (P80385 whole entry partner, looked up): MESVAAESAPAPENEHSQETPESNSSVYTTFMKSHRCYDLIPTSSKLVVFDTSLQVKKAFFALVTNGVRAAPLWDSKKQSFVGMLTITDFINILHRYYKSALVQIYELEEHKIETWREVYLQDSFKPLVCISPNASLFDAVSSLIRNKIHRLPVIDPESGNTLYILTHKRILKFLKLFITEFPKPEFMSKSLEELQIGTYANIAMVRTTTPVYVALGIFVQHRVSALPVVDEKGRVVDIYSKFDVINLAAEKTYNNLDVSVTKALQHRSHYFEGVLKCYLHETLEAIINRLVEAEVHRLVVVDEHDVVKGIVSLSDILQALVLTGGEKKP
Description: as §1

AMPK [2] = test: Selectivity dose-response kinase assay, AMPK
Description: as §1

NUAK1 = NUAK1 (Homo sapiens (Human), UniProt O60285); test: Selectivity dose-response kinase assay, NUAK1; conditions: for Ki: 100 μM ATP
Chain of NUAK1 (O60285 whole entry): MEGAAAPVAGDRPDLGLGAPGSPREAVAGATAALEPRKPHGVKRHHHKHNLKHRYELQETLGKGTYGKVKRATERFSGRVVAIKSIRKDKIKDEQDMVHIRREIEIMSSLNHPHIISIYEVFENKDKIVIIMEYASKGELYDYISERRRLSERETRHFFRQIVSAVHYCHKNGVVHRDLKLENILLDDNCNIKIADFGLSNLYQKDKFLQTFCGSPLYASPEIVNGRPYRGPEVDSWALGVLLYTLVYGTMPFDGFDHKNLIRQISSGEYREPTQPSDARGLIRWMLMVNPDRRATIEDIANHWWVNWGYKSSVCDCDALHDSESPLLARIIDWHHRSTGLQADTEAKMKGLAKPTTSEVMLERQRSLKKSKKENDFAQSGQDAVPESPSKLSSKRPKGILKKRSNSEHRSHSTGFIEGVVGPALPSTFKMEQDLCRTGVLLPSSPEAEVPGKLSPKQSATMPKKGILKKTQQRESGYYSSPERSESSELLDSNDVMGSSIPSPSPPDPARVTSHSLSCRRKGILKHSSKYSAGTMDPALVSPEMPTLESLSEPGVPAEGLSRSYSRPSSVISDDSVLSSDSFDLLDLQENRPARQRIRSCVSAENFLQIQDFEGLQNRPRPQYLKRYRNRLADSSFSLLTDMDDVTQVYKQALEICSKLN
Description: as §1

ERK2 = ERK2 (Rattus norvegicus (Rat), UniProt P63086); test: Selectivity dose-response kinase assay, ERK2
Chain of ERK2 (P63086 whole entry): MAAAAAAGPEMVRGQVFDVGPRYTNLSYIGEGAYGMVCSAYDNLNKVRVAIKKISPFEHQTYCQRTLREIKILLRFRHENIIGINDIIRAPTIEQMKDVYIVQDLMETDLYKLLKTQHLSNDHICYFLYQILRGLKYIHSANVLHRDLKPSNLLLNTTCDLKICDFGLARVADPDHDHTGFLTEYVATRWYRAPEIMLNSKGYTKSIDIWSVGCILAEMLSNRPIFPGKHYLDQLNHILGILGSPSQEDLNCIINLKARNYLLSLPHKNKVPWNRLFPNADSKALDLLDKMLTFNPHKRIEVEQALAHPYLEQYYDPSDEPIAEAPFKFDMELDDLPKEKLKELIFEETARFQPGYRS
Description: as §1

[3] = cross-inhibition of MELK by known kinase inhibitors, read-out: IC50 ± SE
[4] = fragment and intermediate potency (synthetic intermediates), read-out: Ki ± SD
[5] = Ki calculated using Equation 4, [ATP] = 40 μM, KM app (ATP) = 6 μM
[6] = Ki calculated using Equation 4, [ATP] = 40 μM, KM app (ATP) = 6 μM, read-out: Ki ± SE
[7] = indolinone derivatives, read-out: IC50
[8] = selectivity table, MELK, read-out: Ki

Compound: NC(=O)Nc1cc(-c2cccc(F)c2)sc1C(=O)N[C@@H]1CCCNC1 [AZD776, reference compound]
- IC50 (MELK; [3]): 900 ± 91 nM

Compound: c1cc(OCCN2CCCCC2)cc(-c2n[nH]c3ccc(-c4nc[nH]n4)cc23)c1 [CC401, reference compound]
- IC50 (MELK; [3]): 340 ± 70 nM

Compound: CN1CCN(CC(=O)N(C)c2ccc(N)cc2)CC1 [Compound 14, N-(4-Aminophenyl)-N-methyl-2-(4-methylpiperazin-1-yl)acetamide]
- Ki (MELK; [4]): > 5000 nM

Compound: CN1CCN(CC(=O)N(C)c2ccc(N/C(=C3\C(=O)Nc4ccccc43)c3ccccc3)cc2)CC1 [Compound 16, (Z)—N-Methyl-2-(4-methylpiperazin-1-yl)-N-(4-(((2-oxoindolin-3-ylidene)(phenyl)methyl)amino)phenyl)acetamide]
- Ki (CAMKK2): 15 ± 1.8 nM
- Ki (CHK1): 10 ± 0.5 nM
- Ki (AMPK [1]): 4.2 ± 0.3 nM
- difference in Ki compared to MELK (AMPK [2]): 5-10 fold
- difference in Ki compared to MELK (NUAK1): 5-10 fold
- Ki (NUAK1): 1.7 ± 0.17 nM
- Ki ± SE (MELK; [5]): subnanomolar
- Ki (MELK; [6]): 0.47 nM
- IC50 (MELK; [7]): 3.6 ± 0.4 nM
- Ki (MELK; [8]): 0.47 ± 0.06 nM

Compound: CC(C)(C)c1nc2c3ccc(F)cc3c3c(=O)[nH]ccc3c2[nH]1 [Compound 420099, reference compound]
- IC50 (MELK; [3]): 330 ± 37 nM

Compound: O=C1Nc2ccc3scnc3c2/C1=C/c1cnc[nH]1 [Compound 527450, reference compound]
- IC50 (MELK; [3]): 720 ± 100 nM

Compound: N=C(N)NCCNS(=O)(=O)c1cccc2cnccc12 [HA-1004, reference compound]
- IC50 (MELK; [3]): 440 ± 210 nM

Compound: Cc1ccc([N+](=O)[O-])cc1S(=O)(=O)N(C)/N=C/c1cnc2ccc(Br)cn12 [PIK75, reference compound]
- IC50 (MELK; [3]): 400 ± 72 nM

Next, values leading:

- Ki (MELK; [4]): > 5000 nM
Compound: CCO/C(=C1\C(=O)N(C(C)=O)c2cc(C(=O)OC)ccc21)c1ccccc1 [Compound 6, Methyl (Z)-1-acetyl-3-(ethoxy(phenyl)methylene)-2-oxoindoline-6-carboxylate]

- Ki (MELK; [4]): > 5000 nM
Compound: CCO/C(=C1\C(=O)N(C(C)=O)c2ccc(C(=O)OC)cc21)c1ccccc1 [Compound 8, Methyl (Z)-1-acetyl-3-(ethoxy(phenyl)methylene)-2-oxoindoline-5-carboxylate]

- Ki (MELK; [6]): 46 ± 4.6 nM
- IC50 (MELK; [7]): 354 ± 35 nM
Compound: CC(=O)c1ccc2c(c1)/C(=C(/Nc1ccc(N(C)C(=O)CN3CCN(C)CC3)cc1)c1ccccc1)C(=O)N2 [Compound 18, (Z)—N-(4-(((5-Acetyl-2-oxoindolin-3-ylidene)(phenyl)methyl)amino)phenyl)-N-methyl-2-(4-methylpiperazin-1-yl)acetamide]

- Ki (MELK; [6]): 149 ± 22 nM
- IC50 (MELK; [7]): 1140 ± 168 nM
Compound: CN1CCN(CC(=O)N(C)c2ccc(N/C(=C3\C(=O)Nc4cc(C(=O)O)ccc43)c3ccccc3)cc2)CC1 [Compound 20, (Z)-3-(((4-(N-Methyl-2-(4-methylpiperazin-1-yl)acetamido)phenyl)amino)(phenyl)methylene)-2-oxoindoline-6-carboxylic acid]

- difference in relative Ki compared to MELK (CAMKK2): > 100 fold
- φ = Ki Enzyme/Ki MELK (CAMKK2): 125 ± 0.2
- Ki (CAMKK2): 85 ± 9.2 nM
- difference in relative Ki compared to MELK (CHK1): > 100 fold
- φ = Ki Enzyme/Ki MELK (CHK1): 120 ± 0.1
- Ki (CHK1): 81 ± 5.6 nM
- Ki (AMPK [1]): 4.9 ± 0.6 nM
- φ = Ki Enzyme/Ki MELK (AMPK [2]): 7.2 ± 0.2
- φ = Ki Enzyme/Ki MELK (NUAK1): 13 ± 0.2
- Ki (NUAK1): 8.6 ± 1.6 nM
- difference in relative Ki compared to MELK (ERK2): > 100 fold
- φ = Ki Enzyme/Ki MELK (ERK2): 28000 ± 0.2
- Ki (ERK2; 100 μM ATP): 19000 ± 3800 nM
- Ki ± SE (MELK; [5]): subnanomolar
- Ki (MELK; [6]): 0.68 ± 0.07 nM
- φ = Ki Enzyme/Ki MELK (MELK; MELK): 1.00
- IC50 (MELK; [7]): 5.2 ± 0.5 nM
- Ki (MELK; [8]): 0.68 ± 0.07 nM
Compound: CN1CCN(CC(=O)N(C)c2ccc(N/C(=C3\C(=O)Nc4ccc(C(=O)O)cc43)c3ccccc3)cc2)CC1 [Compound 21, (Z)-3-(((4-(N-Methyl-2-(4-methylpiperazin-1-yl)acetamido)phenyl)amino)(phenyl)methylene)-2-oxoindoline-5-carboxylic acid]

- Ki (MELK; [6]): 358 ± 71 nM
- IC50 (MELK; [7]): 2700 ± 540 nM
Compound: CN(C)CCCNC(=O)c1ccc2c(c1)NC(=O)/C2=C(\Nc1ccc(N(C)C(=O)CN2CCN(C)CC2)cc1)c1ccccc1 [Compound 22, (Z)—N-(3-(Dimethylamino)propyl)-3-(((4-(N-methyl-2-(4-methylpiperazin-1-yl)acetamido)phenyl)amino)(phenyl)methylene)-2-oxoindoline-6-carboxamide]

- IC50 (MELK; [7]): > 5000 nM
Compound: CN1CCN(CC(=O)N(C)c2ccc(N/C(=C3\C(=O)Nc4cc(C(=O)NCCCN)ccc43)c3ccccc3)cc2)CC1 [Compound 23, (Z)—N-(3-Aminopropyl)-3-(((4-(N-methyl-2-(4-methylpiperazin-1-yl)acetamido)phenyl)amino)(phenyl)methylene)-2-oxoindoline-6-carboxamide]

- Ki (MELK; [6]): 2.3 nM
- IC50 (MELK; [7]): 18 ± 3.8 nM
Compound: CNC(=O)c1ccc2c(c1)/C(=C(/Nc1ccc(N(C)C(=O)CN3CCN(C)CC3)cc1)c1ccccc1)C(=O)N2 [Compound 24, (Z)—N-Methyl-3-(((4-(N-methyl-2-(4-methylpiperazin-1-yl)acetamido)phenyl)amino)(phenyl)methylene)-2-oxoindoline-5-carboxamide]

- IC50 (MELK; [3]): 760 ± 190 nM
Compound: CCN(CC)CCNC(=O)c1c(C)[nH]c(/C=C2\C(=O)Nc3ccc(Cl)cc32)c1C [Compound 572660, reference compound]

- IC50 (MELK; [3]): 225 ± 50 nM
Compound: CCS(=O)(=O)Nc1ccc2c(c1)/C(=C(/Nc1ccc(CN3CCCCC3)cc1)c1ccccc1)C(=O)N2 [Hesperadin, reference compound]
